Laboratory results: patent publication US20050060772A1, “Regulation of ethylene sensitivity during leaf and flower abscission” (priority 2001, published 2005)
Entries after “also recorded” stand apart in the source; their conditions may differ.

How the values were obtained:
TCTR1 antisense plants = experiment: Inducible leaf abscission in TCTR1 antisense tomato plants; conditions: for rate of leaf abscission compared with EIN3 over-expressing plants: CTR1/TCTR1 antisense plants; for induction of leaf abscission: TCTR1 antisense under the three inducible promoters
[1] = system: transgenic tomato flowers (EIN2 over-expression / co-suppression); conditions: transgenic flowers treated with ethylene (FIG. 1: 10 ppm, 16 hrs)
Experimental: (§1) Flower clusters were cut from the plant, placed in a vial of water, and treated with 10 ppm ethylene for 16 hrs.
(§2) Preliminary work was conducted in tomato to test the efficacy of these approaches.

wild-type tomato flowers = conditions: wild-type flowers treated with ethylene (FIG. 1: 10 ppm, 16 hrs)
Experimental: as §1, §2

Question: What does the source list for `CCO` [ethanol]?
Answer: rate of leaf abscission compared with EIN3 over-expressing plants (TCTR1 antisense plants): less rapid; also recorded: not as rapid; induction of leaf abscission (TCTR1 antisense plants): induced leaf abscission

Question: `CC(C)CC[C@@H](O)[C@](C)(O)[C@H]1CC[C@@]2(O)C3=CC(=O)[C@]4(O)C[C@@H](O)[C@@H](O)C[C@]4(C)[C@H]3[C@H](O)C[C@]12C` [muristeroneA] was tested. Which “rate of leaf abscission compared with EIN3 over-expressing plants” value (TCTR1 antisense plants) did it give?
Answer: The value was “less rapid; also recorded: not as rapid”.

Question: What about the “induction of leaf abscission” value (TCTR1 antisense plants) of the same compound?
Answer: Its value is “induced leaf abscission”.

Question: What does the source list for `C=C` [ethylene]?
Answer: time flowers remained attached to the pedicel after treatment [1]: at least 5 days; time to flower abscission after treatment (wild-type tomato flowers): 24 h
